According to patent US9783510B2, “Small molecule mediated transcriptional induction of E-cadherin” (Vanderbilt University, priority 2014, dated 2017):

What was measured:
[1] = system: E-cadherin expression in SW620 cells; assay: E-cadherin expression, in-cell Western (ICW), SW620 cells; type: cell-based; details: Homo sapiens
Procedure, shortened: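 SW620 cells were treated with compound for 24 h in RPMI 1640 (single-point at 10 μM; EC50 also determined), in quadruplicate. After methanol fixation, in-cell Western with anti-E-cadherin and anti-α-tubulin primaries and IRDye 800/700 secondaries. Read on an Odyssey IR imager.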

[2] = system: E-cadherin mRNA in SW620inv cells; assay: qPCR of E-cadherin specific mRNA, SW620inv cells; type: cell-based; details: 10 μM, 6 hours post-treatment, relative to DMSO
[3] = system: proximal region of the E-cadherin promoter (Cdh1) in SW620inv cells; assay: ChIP assay at proximal E-cadherin promoter, SW620inv cells; type: cell-based
HMEC-1 cells [4] = assay: E-cadherin, VE-cadherin, Vimentin and histone marks in HMEC-1 cells (qPCR, Western blot); type: cell-based, human; details: HMEC-1, 10 μM, by 12 and 24 hours after treatment
HMEC-1 cells [5] = assay: WST-1 metabolism (proliferation) assay, HMEC-1 cells; type: cell-based, human; details: WST-1, 10 μM, 24 h and 48 h
Experimental: Proliferation, migration, and tubular formation are essential characteristics of endothelial cells for the generation of new blood vessels. […] The lack of effect on cell proliferation is consistent with the lack of effect of compounds of similar class on the proliferation of SW620 and H520 cells (Stoops, S. L., et al. (2011) ACS Chemical Biology 6, 452-465). A scratch wound healing assay was performed on cultured HMEC-1 cells. Confluent monolayers of HMEC-1 cells were disrupted mechanically by scraping them with a sterile pipette tip. Within the observation period of 24 hours, Compound 13 treatment antagonized HMEC-1 monolayer wound healing (FIG. 12).
Referring to FIG. 11, HMEC-1 cells were treated with DMSO or 10 μM Compound 13 (259Y) using 96 wells plate, WST-1 was added (10 μL per well, incubate 37° C. for one hour, read at 450 nm reference 562 nm) at 24 h and 48 h. The blank control was a well with media but NO CELLS+wst-1. Each data point is a biological replicate that is the average of three technical replicates minus the average of three blank wells.

[6] = Protein binding in vitro, human samples; type: in vitro ADME
Experimental: (§1) The potency and efficacy of Compound 13 was evaluated in vivo. For these studies, the pharmacokinetics of Compound 13 were first evaluated in vitro and in vivo (FIG. 14).

[7] = Intrinsic clearance in vitro, mouse; type: in vitro ADME
Experimental: as §1

Clearance in vitro, rat = type: in vitro ADME
Experimental: as §1

HEp3 cells = assay: E-cadherin mRNA, protein and histone marks in HEp3 cells; type: cell-based, Human; details: by 6 hours after treatment, compared with Compound 124 treatment
Experimental: To determine if Compound 13 restores E-cadherin in HEp3 cells, the effect of Compound 13 treatment on E-cadherin mRNA expression was tested. Compound 13 induced an 8-fold increase in E-cadherin mRNA by 6 hours after treatment in the […] compared with Compound 124 treatment (FIG. 15C). Not only E-cadherin specific mRNA, but also E-cadherin protein, was induced by Compound 13 treatment (FIG. 15D).
Avian embryos were treated with Compound 124 (266Y) or Compound 13 (259Y) 24 hours after intravenous injection of GFP-expressing HEp3 cells. The formation of metastatic colonies was monitored visually by a fluorescent stereoscope at 50× magnification. Representative images are shown, scale bar=500 μm (15A). Colony diameter was quantified at 6 days post injection. The data represent a total of 30 embryos from two independent experiments: 12 treated with Compound 124 (266Y) and 18 treated with Compound 13 (259Y). […] Each data point on the scatterplot represents the geometric mean diameter of 6-10 colonies analyzed per embryo (15B). Relative E-cadherin mRNA expression in HEp3 cells following 6 hours treatment with either Compound 124 (266Y) or Compound 13 (259Y) is shown (15C). Western blot showing E-cadherin protein re-expression in HEp3 cells following treatment with DMSO, Compound 124 (266Y), or Compound 13 (259Y) for 24 hours is shown (15D). […]

[8] = SW620inv, ChIP, 10 μM vs DMSO (FIG. 7C)

EC50 ([1]; SW-620, inducement of E-cadherin expression in SW620 cells): 4.1 µM | protein binding [6]: relatively high | intrinsic clearance [7]: high | clearance (Clearance in vitro, rat): very moderate
Structure (SMILES): O=C(NCCCNC(=O)c1cccnc1O)c1cc(-c2ccccc2)on1 [Compound 13, N-(3-(2-hydroxynicotinamido)propyl)-5-phenylisoxazole-3-carboxamide]
fold induction at 10 µM ([1]; SW-620, 24 h, change in expression level of E-cadherin in response to 10 μM compound, 24 hours, SW620 cells): 5.23 | increase of E-cadherin specific mRNA [2]: 27 fold | Pol II association with the E-cadherin proximal promoter ([3]; ChIP (FIG. 8)): 3.7 fold | enriched binding of H3K4me3 at the E-cadherin promoter [3, 8]: 2.1 fold | enriched binding of H3K9Ac at the E-cadherin promoter [3, 8]: 3.4 fold | enriched binding of Pol II at the E-cadherin promoter [3, 8]: 4.6 fold | induced expression of E-cadherin mRNA species (HMEC-1 cells [4]): > 5 × | HMEC-1 cell proliferation (HMEC-1 cells [5]): no significant effect | increase in E-cadherin mRNA (HEp3 cells): 8 fold
